Reference: the supplement of paper PMC12463676, “Small-molecule dissolution of stress granules by redox modulation benefits ALS models” (Nature Chemical Biology, 2025)

How the values were obtained:
[1] = compound: O=[As]([O-])(O)O.[K+] [potassium arsenate]; assay: thermal stability z-score vs DMSO; higher = more thermally stabilized by treatment; conditions: HeLa; arsenate concentration 1 mM
Method: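 Cellular thermal proteome profiling in HeLa cells treated with 1 mM arsenate for 1 h (DMSO pretreatment), heated to ten temperatures (37-66.3 °C). Soluble protein was quantified by TMT mass spectrometry relative to DMSO controls; the thermal stability score was transformed to a z-score; mean of n = 3 experiments.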

[2] = compound: NC(=O)CCCCC1CCSS1 [lipoamide]; assay: as above; conditions: HeLa, lipoamide concentration 100 µM
Method: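 Cellular thermal proteome profiling in HeLa cells. Cells were treated with 100 µM lipoamide for 1 h, with or without 1 mM arsenate for a further 1 h, then heated to ten temperatures (37-66.3 °C), and soluble protein was quantified by TMT mass spectrometry relative to 0.1% DMSO controls. The thermal stability score (sum of log2 fold changes minus the abundance score) was transformed to a z-score; mean of n = 3 experiments.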

[3] = arsenate co-treatment: 1 mM arsenate 1 h
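Further: each temperature applied for 3 min, abundance score taken as mean log2 fold change at the two lowest temperatures, z-score obtained by mean subtraction and division by SD.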

Sequence of UniProt Q96JG6 (Q96JG6 whole entry): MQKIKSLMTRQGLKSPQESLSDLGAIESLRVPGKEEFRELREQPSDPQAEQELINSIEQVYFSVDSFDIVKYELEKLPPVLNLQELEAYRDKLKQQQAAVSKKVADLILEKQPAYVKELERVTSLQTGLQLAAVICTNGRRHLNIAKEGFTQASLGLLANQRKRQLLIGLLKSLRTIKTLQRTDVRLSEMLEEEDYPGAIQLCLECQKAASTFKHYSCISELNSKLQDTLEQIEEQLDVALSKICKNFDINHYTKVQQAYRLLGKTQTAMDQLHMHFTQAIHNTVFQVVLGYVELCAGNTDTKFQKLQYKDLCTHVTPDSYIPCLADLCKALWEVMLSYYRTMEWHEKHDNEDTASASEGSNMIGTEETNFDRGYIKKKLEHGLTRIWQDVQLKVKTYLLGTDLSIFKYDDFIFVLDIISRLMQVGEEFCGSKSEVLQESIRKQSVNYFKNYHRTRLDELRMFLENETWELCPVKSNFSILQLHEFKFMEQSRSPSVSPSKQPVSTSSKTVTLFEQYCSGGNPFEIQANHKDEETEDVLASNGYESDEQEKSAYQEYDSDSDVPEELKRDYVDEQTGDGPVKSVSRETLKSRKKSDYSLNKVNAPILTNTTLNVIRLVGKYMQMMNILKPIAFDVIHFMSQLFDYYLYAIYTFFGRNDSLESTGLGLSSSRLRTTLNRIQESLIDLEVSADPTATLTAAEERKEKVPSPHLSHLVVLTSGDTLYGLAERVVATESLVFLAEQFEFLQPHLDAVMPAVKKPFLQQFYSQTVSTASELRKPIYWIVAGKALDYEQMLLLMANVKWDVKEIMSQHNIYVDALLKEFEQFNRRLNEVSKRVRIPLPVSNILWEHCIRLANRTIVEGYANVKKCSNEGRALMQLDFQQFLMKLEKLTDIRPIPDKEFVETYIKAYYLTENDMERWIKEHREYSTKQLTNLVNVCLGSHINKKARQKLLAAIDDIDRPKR
Sequence of UniProt Q9BRX5 (Q9BRX5 whole entry): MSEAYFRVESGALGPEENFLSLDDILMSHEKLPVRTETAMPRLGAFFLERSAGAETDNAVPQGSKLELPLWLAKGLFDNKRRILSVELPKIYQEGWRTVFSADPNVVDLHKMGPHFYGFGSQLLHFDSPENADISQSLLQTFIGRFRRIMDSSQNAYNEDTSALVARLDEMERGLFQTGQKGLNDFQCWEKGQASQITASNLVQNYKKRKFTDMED
Sequence of UniProt Q9Y4C8 (Q9Y4C8 whole entry): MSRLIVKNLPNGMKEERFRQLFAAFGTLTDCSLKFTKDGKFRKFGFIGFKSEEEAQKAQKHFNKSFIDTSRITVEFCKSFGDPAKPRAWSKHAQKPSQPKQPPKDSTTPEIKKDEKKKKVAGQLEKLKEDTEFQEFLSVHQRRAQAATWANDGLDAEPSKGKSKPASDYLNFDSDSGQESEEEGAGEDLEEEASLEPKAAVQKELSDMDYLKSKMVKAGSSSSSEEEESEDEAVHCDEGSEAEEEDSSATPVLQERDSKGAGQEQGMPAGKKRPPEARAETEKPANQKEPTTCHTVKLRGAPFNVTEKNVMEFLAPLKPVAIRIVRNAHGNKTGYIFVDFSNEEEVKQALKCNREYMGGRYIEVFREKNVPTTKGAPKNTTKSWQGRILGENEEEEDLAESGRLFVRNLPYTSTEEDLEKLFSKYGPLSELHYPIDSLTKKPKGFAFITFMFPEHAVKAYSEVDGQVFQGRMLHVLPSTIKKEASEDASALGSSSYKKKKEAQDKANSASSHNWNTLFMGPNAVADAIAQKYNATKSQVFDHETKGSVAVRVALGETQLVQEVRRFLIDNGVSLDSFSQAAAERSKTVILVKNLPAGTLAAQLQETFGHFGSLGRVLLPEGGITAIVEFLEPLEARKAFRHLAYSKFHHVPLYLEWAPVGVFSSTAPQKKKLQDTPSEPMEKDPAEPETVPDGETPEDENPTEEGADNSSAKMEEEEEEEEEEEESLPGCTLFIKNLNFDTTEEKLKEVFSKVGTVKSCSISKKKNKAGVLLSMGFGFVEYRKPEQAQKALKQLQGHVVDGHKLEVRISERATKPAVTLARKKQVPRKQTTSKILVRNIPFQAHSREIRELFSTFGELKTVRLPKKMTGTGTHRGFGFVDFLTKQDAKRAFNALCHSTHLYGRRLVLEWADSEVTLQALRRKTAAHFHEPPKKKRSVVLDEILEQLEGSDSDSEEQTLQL
Sequence of UniProt P25787 (P25787 whole entry): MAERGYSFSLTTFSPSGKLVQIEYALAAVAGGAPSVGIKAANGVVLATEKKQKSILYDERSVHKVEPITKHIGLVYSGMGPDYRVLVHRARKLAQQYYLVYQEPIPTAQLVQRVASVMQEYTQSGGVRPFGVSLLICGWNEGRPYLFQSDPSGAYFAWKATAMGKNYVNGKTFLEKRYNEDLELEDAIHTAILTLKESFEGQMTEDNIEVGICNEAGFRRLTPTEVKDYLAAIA
Sequence of UniProt P60033 (P60033 whole entry): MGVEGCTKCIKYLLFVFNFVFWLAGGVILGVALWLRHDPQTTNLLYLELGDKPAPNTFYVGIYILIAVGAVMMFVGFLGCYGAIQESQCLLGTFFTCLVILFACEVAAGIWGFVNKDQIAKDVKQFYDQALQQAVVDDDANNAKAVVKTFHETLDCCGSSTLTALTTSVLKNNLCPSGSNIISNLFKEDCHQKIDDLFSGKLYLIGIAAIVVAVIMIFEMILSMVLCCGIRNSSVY
Sequence of UniProt Q9NTJ5 (Q9NTJ5 whole entry): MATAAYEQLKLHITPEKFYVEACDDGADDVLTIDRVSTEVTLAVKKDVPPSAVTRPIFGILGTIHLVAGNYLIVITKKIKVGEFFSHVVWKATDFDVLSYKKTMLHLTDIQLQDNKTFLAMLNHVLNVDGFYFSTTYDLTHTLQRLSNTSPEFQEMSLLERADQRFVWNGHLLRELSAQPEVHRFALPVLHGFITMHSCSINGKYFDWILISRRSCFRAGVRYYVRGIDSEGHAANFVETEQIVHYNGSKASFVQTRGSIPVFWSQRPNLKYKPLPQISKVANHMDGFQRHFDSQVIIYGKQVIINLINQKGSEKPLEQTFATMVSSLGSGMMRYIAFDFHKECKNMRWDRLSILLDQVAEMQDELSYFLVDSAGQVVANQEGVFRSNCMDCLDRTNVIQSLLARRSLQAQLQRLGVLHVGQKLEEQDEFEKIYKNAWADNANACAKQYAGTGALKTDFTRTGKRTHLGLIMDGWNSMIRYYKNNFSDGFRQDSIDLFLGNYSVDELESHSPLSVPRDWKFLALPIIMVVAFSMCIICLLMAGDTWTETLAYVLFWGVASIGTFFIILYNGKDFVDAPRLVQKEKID
Sequence of UniProt O00469 (O00469 whole entry): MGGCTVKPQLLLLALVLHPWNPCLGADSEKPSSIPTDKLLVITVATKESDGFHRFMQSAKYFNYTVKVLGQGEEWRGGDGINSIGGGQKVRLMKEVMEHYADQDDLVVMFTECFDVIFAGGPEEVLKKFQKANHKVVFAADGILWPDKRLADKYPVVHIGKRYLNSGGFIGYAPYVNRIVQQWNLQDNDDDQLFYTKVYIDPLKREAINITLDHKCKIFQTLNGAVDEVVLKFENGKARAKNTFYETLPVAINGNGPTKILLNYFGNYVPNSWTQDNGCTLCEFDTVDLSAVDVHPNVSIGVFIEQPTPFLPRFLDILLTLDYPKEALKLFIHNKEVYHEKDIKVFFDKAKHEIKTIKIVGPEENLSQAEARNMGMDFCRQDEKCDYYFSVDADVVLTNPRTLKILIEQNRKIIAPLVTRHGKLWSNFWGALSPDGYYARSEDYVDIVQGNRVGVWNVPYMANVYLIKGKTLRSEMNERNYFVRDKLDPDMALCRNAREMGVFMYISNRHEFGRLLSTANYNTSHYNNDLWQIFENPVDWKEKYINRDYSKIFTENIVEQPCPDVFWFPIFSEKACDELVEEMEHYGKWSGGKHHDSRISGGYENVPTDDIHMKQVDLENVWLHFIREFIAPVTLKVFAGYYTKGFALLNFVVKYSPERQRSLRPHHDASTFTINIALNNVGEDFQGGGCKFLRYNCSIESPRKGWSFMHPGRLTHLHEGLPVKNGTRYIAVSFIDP
Sequence of UniProt Q9Y6M1 (Q9Y6M1 whole entry): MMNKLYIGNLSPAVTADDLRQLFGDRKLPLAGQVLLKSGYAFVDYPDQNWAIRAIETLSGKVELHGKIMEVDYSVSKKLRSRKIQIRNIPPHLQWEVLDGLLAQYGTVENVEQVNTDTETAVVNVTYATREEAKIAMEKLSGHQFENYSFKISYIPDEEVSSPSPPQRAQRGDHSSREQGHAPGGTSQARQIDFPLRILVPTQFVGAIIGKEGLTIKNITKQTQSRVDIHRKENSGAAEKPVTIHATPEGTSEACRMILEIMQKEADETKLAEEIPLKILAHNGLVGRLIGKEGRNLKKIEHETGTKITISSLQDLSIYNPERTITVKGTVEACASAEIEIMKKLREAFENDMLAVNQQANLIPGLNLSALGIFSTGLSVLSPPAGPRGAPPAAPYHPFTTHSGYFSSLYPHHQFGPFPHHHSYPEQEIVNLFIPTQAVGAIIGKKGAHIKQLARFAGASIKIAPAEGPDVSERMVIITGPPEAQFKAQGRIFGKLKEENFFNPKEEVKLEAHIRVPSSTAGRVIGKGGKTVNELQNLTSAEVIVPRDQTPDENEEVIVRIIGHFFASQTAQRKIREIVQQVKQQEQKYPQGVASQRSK
Sequence of UniProt Q9Y221 (Q9Y221 whole entry): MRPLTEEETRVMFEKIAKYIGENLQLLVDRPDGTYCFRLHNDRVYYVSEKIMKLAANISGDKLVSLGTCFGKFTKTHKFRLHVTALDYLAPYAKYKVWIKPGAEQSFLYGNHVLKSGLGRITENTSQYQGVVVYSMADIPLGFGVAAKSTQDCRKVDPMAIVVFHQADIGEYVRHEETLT
Sequence of UniProt P30048 (P30048 whole entry): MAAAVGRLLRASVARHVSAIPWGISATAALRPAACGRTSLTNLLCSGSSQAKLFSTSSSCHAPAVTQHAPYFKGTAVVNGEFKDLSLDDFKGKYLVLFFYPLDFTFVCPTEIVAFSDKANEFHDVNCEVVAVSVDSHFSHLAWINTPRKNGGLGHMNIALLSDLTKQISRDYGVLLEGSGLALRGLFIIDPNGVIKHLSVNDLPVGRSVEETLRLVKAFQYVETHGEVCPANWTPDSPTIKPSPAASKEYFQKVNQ

Target | thermal stability z-score [1] | thermal stability z-score [2, 3] | thermal stability z-score ([2]; arsenate co-treatment: none)
AGPAT1 (UniProt Q99943) | 0.0795 | -0.0471 | -0.591
DNAJC10 (UniProt Q8IXB1) | -0.253 | -3.47 | -2.86
GABPA (UniProt Q06546) | 4.54 | -0.201 | -0.185
SACM1L (UniProt Q9NTJ5) | 0.448 | -0.145 | -0.499
EDRF1 (UniProt Q3B7T1) | -0.168 | -0.147 | -0.327
PABPC4 (UniProt Q13310) | -0.478 | 0.322 | 0.911
NECTIN3 (UniProt Q9NQS3) | 0.432 | -0.126 | -0.303
FASTKD1 (UniProt Q53R41) | -0.324 | -0.195 | -0.378
RBM19 (UniProt Q9Y4C8) | 0.649 | 0.0627 | 0.309
C19ORF43 (UniProt Q9BQ61) | -0.0224 | 0.121 | 0.217
CD81 (UniProt P60033) | -0.753 | -0.142 | -0.642
PRDX3 (UniProt P30048) | -0.448 | 0.429 | 0.812
MAST2 (UniProt Q6P0Q8) | 0.00193 | -0.0733 | -0.0383
IGF2BP2 (UniProt Q9Y6M1) | -0.165 | -0.00758 | 0.044
PTCD3 (UniProt Q96EY7) | -0.0411 | 0.272 | 0.525
PLOD2 (UniProt O00469) | 0.877 | -3.92 | -3.35
SAR1B (UniProt Q9Y6B6) | 0.0901 | 0.0537 | 0.376
ZNF217 (UniProt O75362) | -0.589 | -0.058 | 0.343

Target | thermal stability z-score [1] | thermal stability z-score [2, 3] | thermal stability z-score ([2]; arsenate co-treatment: none)
MITD1 (UniProt Q8WV92) | 0.168 | 0.39 | 0.109
ALDH16A1 (UniProt Q8IZ83) | -0.784 | -0.127 | -0.311
MICU1 (UniProt Q9BPX6) | 0.746 | -0.305 | -0.0396
NOP2 (UniProt P46087) | -0.016 | 0.976 | -0.163
RPP21 (UniProt Q9H633) | -0.209 | -0.411 | -0.242
EIF4E2 (UniProt O60573) | -1.43 | -0.568 | -0.113
ATP11B (UniProt Q9Y2G3) | -1.03 | 0.0989 | -0.588
DNAJC17 (UniProt Q9NVM6) | -0.299 | 0.0174 | 0.0121
TXN (UniProt P10599) | 0.598 | 0.913 | 0.827
PSMA2 (UniProt P25787) | -0.132 | 0.38 | 0.455
CLIP1 (UniProt P30622) | -0.345 | -0.0952 | 0.0784
PLA2G12A (UniProt Q9BZM1) | -0.111 | -0.0117 | -0.134
NIP7 (UniProt Q9Y221) | -0.111 | 0.337 | -0.869
VPS50 (UniProt Q96JG6) | 0.134 | -0.564 | -0.541
OAS1 (UniProt P00973) | -0.247 | -0.156 | 0.0182
GINS3 (UniProt Q9BRX5) | -0.288 | 0.275 | -0.19
RNF10 (UniProt Q8N5U6) | -0.23 | -0.0188 | -0.286
